Literature values, collected in paper PMC6311893, “Computational prediction of plasma protein binding of cyclic peptides from small molecule experimental data using sparse modeling techniques” (BMC Bioinformatics, 2018).
Where two headings read alike, the source gives them in different places.

System: plasma protein
Settings: cited from earlier work
[1] = fraction bound to plasma protein, small molecule dataset, sheet 1-SM, Set Dtr, ref Ingle et al.
[2] = fraction bound to plasma protein, small molecule dataset, sheet 1-SM (Set Dte = test, Dtr = training), ref Ingle et al.
[3] = fraction bound to plasma protein, small molecule dataset, sheet 1-SM, ref Ingle et al.

CCCC(C)(COC(N)=O)COC(N)=O [Meprobamate]
PPB (fb) (plasma): 0.1

Iloprost
PPB (fb) (plasma): 0.6

C[C@H]1[C@H](NC(=O)/C(=N\OC(C)(C)C(=O)O)c2csc(N)n2)C(=O)N1S(=O)(=O)O [Aztreonam]
PPB (fb) [1]: 0.58

O=C1Nc2ccc(Cl)cc2C(c2ccccc2Cl)=NC1O (stereo not drawn) [Lorazepam]
PPB (fb) (plasma): 0.91

CC1(C)SC2C(NC=O)C(=O)N2C1C(=O)O (stereo not drawn) [penicillin1]
PPB (fb) [2]: 0.18

CNC1(c2ccccc2Cl)CCCCC1=O (stereo not drawn) [Ketamine]
PPB (fb) (plasma): 0.44

CC(Oc1c(Cl)cccc1Cl)C1=NCCN1 (stereo not drawn) [lofexidine]
PPB (fb) [3]: 0.6

Oc1c(Cl)c(Cl)c(Cl)c(Cl)c1Cl [pentachlorophenol]
PPB (fb) (plasma): 0.99

COc1ccc(CCN2CCC(Nc3nc4ccccc4n3Cc3ccc(F)cc3)CC2)cc1 [astemizole]
PPB (fb) [2]: 0.97

CC(Oc1ccc(Cl)cc1)C(=O)NC1C(=O)N2C1SC(C)(C)C2C(=O)O (stereo not drawn) [penicillin42]
PPB (fb) [3]: 0.92

COc1ccc(C(N)C(=O)NC2C(=O)N3C2SC(C)(C)C3C(=O)O)cc1 (stereo not drawn) [penicillin34]
PPB (fb) [3]: 0.38

CC(C)[C@H](N)C(=O)OCCOCn1cnc2c(=O)[nH]c(N)nc21 [valacyclovir]
PPB (fb) [1]: 0.18

N[C@@H]1CN(c2c(F)cc3c(=O)c(C(=O)O)cn([C@@H]4C[C@@H]4F)c3c2Cl)CC12CC2 [Sitafloxacin]
PPB (fb) [2]: 0.49

CC(=O)C1(O)CCC2C3CCC4=CC(=O)CCC4(C)C3CCC21C (stereo not drawn) [17-hydroxyprogesterone]
PPB (fb) (plasma): 0.85

Cc1nnc2n1-c1ccc(Cl)cc1C(c1ccccc1Cl)=NC2 [Triazolam]
PPB (fb) (plasma): 0.89

CC(CC1c2ccccc2CCc2ccccc21)CN(C)C (stereo not drawn) [butriptyline]
PPB (fb) [2]: 0.95

COc1cc(NCc2ccc3nc(N)nc(N)c3c2C)cc(OC)c1OC [Trimetrexate]
PPB (fb) [3]: 0.96

CCOCCC(=O)NC1C(=O)N2C1SC(C)(C)C2C(=O)O (stereo not drawn) [penicillin11]
PPB (fb) [3]: 0.25

Oc1ncnc2[nH]ncc12 [Allopurinol]
PPB (fb) [1]: 0.02

C#C[C@]1(O)CC[C@H]2[C@@H]3[C@H](C)CC4=C(CCC(=O)C4)[C@H]3CC[C@@]21C [tibolone]
PPB (fb) [3]: 0.96

CC(C)=CCC1C(=O)N(c2ccccc2)N(c2ccccc2)C1=O [feprazone]
PPB (fb) [3]: 0.95

CN(C)CCC=C1c2ccccc2CCc2ccccc21 [Amitriptyline]
PPB (fb) [2]: 0.94

CCc1cc2c(s1)-n1c(C)nnc1CN=C2c1ccccc1Cl [etizolam]
PPB (fb) (plasma): 0.93

COc1c(N2C[C@@H]3CCCN[C@@H]3C2)c(F)cc2c(=O)c(C(=O)O)cn(C3CC3)c12 [Moxifloxacin]
PPB (fb) [1]: 0.45

NS(=O)(=O)c1cc2c(cc1C(F)(F)F)NCNS2(=O)=O [hydroflumethiazide]
PPB (fb) [3]: 0.75

Cc1nc(C)c(C)nc1C [tetramethylpyrazine phosphate]
PPB (fb) [3]: 0.56

CC(COc1ccccc1)NC(C)C(O)c1ccc(O)cc1 (stereo not drawn) [isoxsuprine]
PPB (fb) [3]: 0

Nc1ccc(C(=O)O)c(O)c1 [4-aminosalicylic acid]
PPB (fb): 0.62

OCCN1CCN(CCC=C2c3ccccc3Sc3ccc(C(F)(F)F)cc32)CC1 [flupenthixol]
PPB (fb) [3]: 0.95

O=P(O)(O)C(O)(Cn1ccnc1)P(=O)(O)O [Zoledronic Acid]
PPB (fb) [3]: 0.22

Cc1cc2nc3c(=O)[nH]c(=O)nc-3n(C[C@H](O)[C@H](O)[C@H](O)CO)c2cc1C [riboflavin]
PPB (fb) [3]: 0.6

N[C@@H](CC(=O)N1CCn2c(nnc2C(F)(F)F)C1)Cc1cc(F)c(F)cc1F [Sitagliptin]
PPB (fb) [3]: 0.38

COc1ccc(CCNCC(O)COc2cccc(C)c2)cc1OC (stereo not drawn) [Bevantolol]
PPB (fb) [2]: 0.97

OCCN1CCN(CC/C=C2/c3ccccc3Sc3ccc(Cl)cc32)CC1 [zuclopenthixol]
PPB (fb) [1]: 0.98

COc1ncnc(NS(=O)(=O)c2ccc(N)cc2)c1OC [sulfadoxine]
PPB (fb) [3]: 0.94

C/C=C/C1=C(C(=O)O)N2C(=O)C(NC(=O)C(N)c3ccc(O)cc3)C2SC1 (stereo not drawn) [Cefprozil]
PPB (fb) [1]: 0.38

Cc1nnc(SCC2=C(C(=O)O)N3C(=O)[C@@H](NC(=O)Cn4cnnn4)[C@H]3SC2)s1 [Cefazolin]
PPB (fb) [2]: 0.83

NC(Cc1cc(I)c(Oc2cc(I)c(O)c(I)c2)c(I)c1)C(=O)O (stereo not drawn) [thyroxine]
PPB (fb) [2]: 0.99

CC(=O)O[C@H]1C[C@@]2(C)[C@@H](C[C@@H](O)[C@H]3[C@@]4(C)CC[C@@H](O)[C@@H](C)[C@@H]4CC[C@@]32C)/C1=C(\CCC=C(C)C)C(=O)O [fusidic acid]
PPB (fb) [3]: 0.95

Cc1cccc(C)c1OCC(C)N (stereo not drawn) [Mexiletine]
PPB (fb) [1]: 0.63

O=C(O)[C@H]1/C(=C/CO)O[C@@H]2CC(=O)N21 [Clavulanic Acid]
PPB (fb) [1]: 0.09

CC1(C)[C@@H](OC(=O)CCC(=O)O)CC[C@]2(C)[C@H]3C(=O)C=C4[C@@H]5C[C@@](C)(C(=O)O)CC[C@]5(C)CC[C@@]4(C)[C@]3(C)CC[C@@H]12 [carbenoxolone]
PPB (fb) [2]: 0.99

CCC(C)(C)NCC(O)COc1ccccc1C(=O)CCc1ccccc1 (stereo not drawn) [Diprafenone]
PPB (fb) [2]: 0.98

O=C(O)c1cn(-c2ccc(F)cc2)c2cc(N3CCNCC3)c(F)cc2c1=O [2c(p-F)]
PPB (fb) [2]: 0.31

CS(=O)(=O)c1ccc([C@@H](O)[C@@H](CF)NC(=O)C(Cl)Cl)cc1 [florfenicol]
PPB (fb) [3]: 0.12

CC1=C(C/C=C(\C)CCCC(C)CCCC(C)CCCC(C)C)C(=O)c2ccccc2C1=O (stereo not drawn) [vitamin-K]
PPB (fb) [1]: 0.9

CCC(OC(C)=O)C(CC(C)N(C)C)(c1ccccc1)c1ccccc1 (stereo not drawn) [laam]
PPB (fb) (plasma): 0.8

CC1=NS(=O)(=O)c2cc(Cl)ccc2N1 [Diazoxide]
PPB (fb) [1]: 0.92

Cc1c(C(C)C)c(=O)n(-c2ccccc2)n1C [propyphenazone]
PPB (fb) [3]: 0.1

NC1CCN(c2c(F)cc3c(=O)c(C(=O)O)cn(C4CC4)c3c2Cl)C1 (stereo not drawn) [Clinafloxacin]
PPB (fb) [2]: 0.04

Nc1nc(O)c2ncn(COC(CO)CO)c2n1 [Ganciclovir]
PPB (fb) [1]: 0.01

C#C[C@]1(O)C=C[C@H]2[C@@H]3CCC4=CC(=O)CC[C@@H]4[C@H]3CC[C@@]21CC [Gestodene]
PPB (fb) [1]: 0.98

CC(C)Cc1ccc(C(C)C(=O)NCCCN(C)C)cc1 (stereo not drawn) [JMC_07]
PPB (fb) [3]: 0.75

CO[C@H]1C[C@@H]2CC[C@@H](C)[C@@](O)(O2)C(=O)C(=O)N2CCCC[C@H]2C(=O)O[C@H]([C@H](C)C[C@@H]2CC[C@@H](O)[C@H](OC)C2)CC(=O)[C@H](C)/C=C(\C)[C@@H](O)[C@@H](OC)C(=O)[C@H](C)C[C@H](C)/C=C/C=C/C=C/1C [sirolimus]
PPB (fb) [3]: 0.92

C[C@H](CCC(=O)O)[C@H]1CC[C@H]2[C@@H]3[C@@H](O)C[C@@H]4C[C@H](O)CC[C@]4(C)[C@H]3CC[C@]12C [ursodiol]
PPB (fb) [1]: 0.97

CCC1(c2ccccc2)C(=O)NC(=O)N(C)C1=O (stereo not drawn) [methylphenobarbital]
PPB (fb) (plasma): 0.5

CN1C[C@H](C(=O)N[C@]2(C)O[C@@]3(O)[C@@H]4CCCN4C(=O)[C@H](Cc4ccccc4)N3C2=O)C[C@@H]2c3cccc4[nH]cc(c34)C[C@H]21 [dihydroergotamine]
PPB (fb) [2]: 0.93

Cc1nc(NS(=O)(=O)c2ccc(N)cc2)oc1C [sulfamoxole]
PPB (fb) [3]: 0.7

COc1cc2nc(N3CCN(C(=O)C4COc5ccccc5O4)CC3)nc(N)c2cc1OC (stereo not drawn) [Doxazosin]
PPB (fb) [1]: 0.97

COc1cc(C(=O)NS(=O)(=O)c2ccccc2C)ccc1Cc1cn(C)c2ccc(NC(=O)OC3CCCC3)cc12 [zafirlukast]
PPB (fb) [1]: 0.99
